Assay results as given in US12655116B2, “Substituted isophthalic acid diamides” (Bayer Aktiengesellschaft, priority 2020, dated 2026).

Experiments:
LOLRI [1] = test: Post-emergence herbicidal action against LOLRI; assay type: in vivo, Lolium rigidum; conditions: Lolium rigidum, 504 h, dosage 20 g/ha
Protocol: Seeds of monocotyledonous and dicotyledonous weed and crop plants are laid out in sandy loam soil in wood-fiber pots, covered with soil and cultivated in a greenhouse under good growth conditions. 2 to 3 weeks after sowing, the test plants are treated at the one-leaf stage. The compounds of the invention, formulated in the form of wettable powders (WP) or as emulsion concentrates (EC), are then sprayed onto the green parts of the plants in the form of an aqueous suspension or emulsion at a water application rate equivalent to 600 to 800 l/ha, with addition of 0.2% wetting agent. After the test plants have been left to stand in the greenhouse under optimal growth conditions for about 3 weeks, the action of the preparations is assessed visually in comparison to untreated controls (herbicidal action in percent (%): 100% activity=the plants have died, 0% activity=like control plants). […] The tables below illustrate, in an illustrative manner, the post-emergence herbicidal action of the compounds of the invention, the herbicidal activity being stated in percent.

ECHCG [2] = test: Pre-emergence herbicidal action against ECHCG; assay type: in vivo, Echinochloa crus-galli; conditions: Echinochloa crus-galli, 504 h, 80 g/ha
How it was run: (§1)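 Pre-emergence soil-surface spray of formulated compound (WP or EC; 600 to 800 l/ha; 0.2% wetting agent) over seeds sown in sandy loam. After 3 weeks under greenhouse conditions, damage is estimated visually in percent against untreated plants.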

AMARE [3] = test: Pre-emergence herbicidal action against AMARE; assay type: in vivo, Amaranthus retroflexus; conditions: Amaranthus retroflexus, 504 h, scored visually after 3 weeks vs untreated controls, 100% = plants have died, 0% = like control plants
How it was run: as §1

AMARE [4] = test: Post-emergence herbicidal action against AMARE; assay type: in vivo, Amaranthus retroflexus; conditions: Amaranthus retroflexus, 504 h, 20 g/ha, visual assessment about 3 weeks after treatment, 100% = plants have died, 0% = like control plants
How it was run: (§2)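 Spray, one-leaf stage: WP or EC compound in water, 600–800 l/ha, 0.2% wetting agent. Plants held about 3 weeks in the greenhouse, then visually rated in percent of kill compared with untreated controls.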

SETVI [5] = test: Post-emergence herbicidal action against SETVI; assay type: in vivo, Setaria viridis; conditions: Setaria viridis, 504 h, dosage 20 g/ha
How it was run: as §2

DIGSA [6] = test: Pre-emergence herbicidal action against DIGSA; assay type: in vivo, Digitaria sanguinalis; conditions: Digitaria sanguinalis, 504 h; for pest or weed control at 20 g/ha: dosage 20 g/ha; for pest or weed control at 80 g/ha: dosage 80 g/ha
How it was run: as §1

PHBPU [7] = test: Pre-emergence herbicidal action against PHBPU; assay type: in vivo, Pharbitis purpurea; conditions: Ipomoea purpurea, 504 h, dosage 80 g/ha
How it was run: as §1

ALOMY [8] = test: Pre-emergence herbicidal action against ALOMY; assay type: in vivo, Alopecurus myosuroides; conditions: Alopecurus myosuroides, 504 h; 80 g/ha, pre-emergence, scored visually after 3 weeks vs untreated controls (100% = plants have died, 0% = like control plants)
How it was run: as §1

VIOTR [9] = test: Pre-emergence herbicidal action against VIOTR; assay type: in vivo, Viola tricolor; conditions: Viola tricolor, 504 h; for pest or weed control at 20 g/ha: dosage 20 g/ha; for pest or weed control at 80 g/ha: dosage 80 g/ha
How it was run: as §1

PHBPU [10] = test: Post-emergence herbicidal action against PHBPU; assay type: in vivo, Pharbitis purpurea; conditions: Ipomoea purpurea, 504 h; for pest or weed control at 20 g/ha: dosage 20 g/ha
How it was run: as §2

ABUTH [11] = test: Post-emergence herbicidal action against ABUTH; assay type: in vivo, Abutilon theophrasti; conditions: Abutilon theophrasti, 504 h, visual assessment about 3 weeks after treatment vs untreated controls
How it was run: as §2

ABUTH [12] = test: Pre-emergence herbicidal action against ABUTH; assay type: in vivo, Abutilon theophrasti; conditions: Abutilon theophrasti, 504 h; for pest or weed control at 80 g/ha: scored visually after 3 weeks vs untreated controls (100% = plants have died, 0% = like control plants); for pest or weed control at 20 g/ha: dosage 20 g/ha, scored visually after 3 weeks vs untreated controls, 100% = plants have died, 0% = like control plants, read-out: Pre-emergence action against ABUTH (herbicidal activity in percent)
How it was run: as §1

AVEFA [13] = test: Post-emergence herbicidal action against AVEFA; assay type: in vivo, Avena fatua; conditions: Avena fatua, 504 h, 20 g/ha, visual assessment about 3 weeks after treatment, 100% = plants have died, 0% = like control plants
How it was run: as §2

DIGSA [14] = test: Post-emergence herbicidal action against DIGSA; assay type: in vivo, Digitaria sanguinalis; conditions: Digitaria sanguinalis, 504 h
How it was run: as §2

ALOMY [15] = test: Post-emergence herbicidal action against ALOMY; assay type: in vivo, Alopecurus myosuroides; conditions: Alopecurus myosuroides, 504 h, visual assessment about 3 weeks after treatment vs untreated controls; for pest or weed control at 5 g/ha: dosage 5 g/ha; for pest or weed control at 20 g/ha: dosage 20 g/ha
How it was run: as §2

MATIN [16] = test: Post-emergence herbicidal action against MATIN; assay type: in vivo, Matricaria inodora; conditions: Tripleurospermum inodorum, 504 h, dosage 20 g/ha
How it was run: as §2

VERPE [17] = test: Post-emergence herbicidal action against VERPE; assay type: in vivo, Veronica persica; conditions: Veronica persica, 504 h
How it was run: as §2

ECHCG [18] = test: Post-emergence herbicidal action against ECHCG; assay type: in vivo, Echinochloa crus-galli; conditions: Echinochloa crus-galli, 504 h; for pest or weed control at 20 g/ha: dosage 20 g/ha
How it was run: as §2

VIOTR [19] = test: Post-emergence herbicidal action against VIOTR; assay type: in vivo, Viola tricolor; conditions: Viola tricolor, 504 h, 20 g/ha
How it was run: as §2

POLCO = test: Pre-emergence herbicidal action against POLCO; assay type: in vivo, Polygonum convolvulus; conditions: Fallopia convolvulus, 504 h, dosage 80 g/ha
How it was run: as §1

SETVI [20] = test: Pre-emergence herbicidal action against SETVI; assay type: in vivo, Setaria viridis; conditions: Setaria viridis, 504 h, dosage 80 g/ha
How it was run: as §1

LOLRI [21] = test: Pre-emergence herbicidal action against LOLRI; assay type: in vivo, Lolium rigidum; conditions: Lolium rigidum, 504 h, 80 g/ha
How it was run: as §1

VERPE [22] = test: Pre-emergence herbicidal action against VERPE; assay type: in vivo, Veronica persica; conditions: Veronica persica, 504 h
How it was run: as §1

MATIN [23] = test: Pre-emergence herbicidal action against MATIN; assay type: in vivo, Matricaria inodora; conditions: Tripleurospermum inodorum, 504 h; for pest or weed control at 20 g/ha: dosage 20 g/ha; for pest or weed control at 80 g/ha: dosage 80 g/ha
How it was run: as §1

AVEFA [24] = test: Pre-emergence herbicidal action against AVEFA; assay type: in vivo, Avena fatua; conditions: Avena fatua, 504 h; 80 g/ha, pre-emergence
How it was run: as §1

SMILES | pest or weed control at 20 g/ha (LOLRI [1]) [%] | pest or weed control at 80 g/ha (ECHCG [2]) [%] | pest or weed control at 20 g/ha (AMARE [3]) [%] | pest or weed control at 80 g/ha (AMARE [3]) [%] | pest or weed control at 20 g/ha (AMARE [4]) [%] | pest or weed control at 20 g/ha (SETVI [5]) [%] | pest or weed control at 20 g/ha (DIGSA [6]) [%] | pest or weed control at 80 g/ha (DIGSA [6]) [%] | pest or weed control at 80 g/ha (PHBPU [7]) [%] | pest or weed control at 80 g/ha (ALOMY [8]) [%] | pest or weed control at 20 g/ha (VIOTR [9]) [%] | pest or weed control at 80 g/ha (VIOTR [9]) [%] | pest or weed control at 20 g/ha (PHBPU [10]) [%] | pest or weed control at 80 g/ha (ABUTH [12]) [%] | pest or weed control at 20 g/ha (ABUTH [12]) [%] | pest or weed control at 20 g/ha (AVEFA [13]) [%] | pest or weed control at 5 g/ha (DIGSA [14]) [%] | pest or weed control at 20 g/ha (DIGSA [14]) [%] | pest or weed control at 5 g/ha (ALOMY [15]) [%] | pest or weed control at 20 g/ha (ALOMY [15]) [%] | other results
CNC(=O)c1c(C(F)(F)C(F)(F)F)ccc(C(=O)Nc2nnnn2C)c1Cl [Example 1-165] | 80 | 100 | 100 | 100 | 90 | 90 | 100 | 100 | 100 | 100 | 90 | 100 | 90 | 100 | 90 | 90 | 90 | 90 | 90 | 100 | pest or weed control at 5 g/ha (PHBPU [10]; dosage 5 g/ha): 90%; pest or weed control at 5 g/ha (ABUTH [11]; dosage 5 g/ha): 90%; pest or weed control at 20 g/ha (ABUTH [11]; dosage 20 g/ha): 90%; pest or weed control at 20 g/ha (MATIN [16]): 80%; pest or weed control at 5 g/ha (VERPE [17]; 5 g/ha): 80%; pest or weed control at 20 g/ha (VERPE [17]): 80%; pest or weed control at 20 g/ha (ECHCG [18]): 90%; pest or weed control at 20 g/ha (VIOTR [19]): 80%; pest or weed control at 80 g/ha (POLCO): 90%; pest or weed control at 80 g/ha (SETVI [20]): 100%; pest or weed control at 80 g/ha (LOLRI [21]): 80%; pest or weed control at 20 g/ha (VERPE [22]; dosage 20 g/ha): 80%; pest or weed control at 80 g/ha (VERPE [22]; dosage 80 g/ha): 100%; pest or weed control at 20 g/ha (MATIN [23]): 100%; pest or weed control at 80 g/ha (MATIN [23]): 100%
Cn1nnnc1NC(=O)c1ccc(Br)c(C(=O)NCC(F)(F)F)c1Cl [Example 1-181] | 80 | 100 | 100 | 100 | 100 | 90 | 100 | 100 | 80 | 100 | 100 | 100 | 90 | 100 | 90 | 90 | 90 | 90 | 80 | 100 | pest or weed control at 80 g/ha (AVEFA [24]): 80%; pest or weed control at 20 g/ha (VERPE [17]): 90%; pest or weed control at 5 g/ha (ECHCG [18]; dosage 5 g/ha): 80%; pest or weed control at 20 g/ha (ECHCG [18]): 80%; pest or weed control at 80 g/ha (SETVI [20]): 100%; pest or weed control at 80 g/ha (LOLRI [21]): 80%; pest or weed control at 20 g/ha (MATIN [23]): 90%; pest or weed control at 80 g/ha (MATIN [23]): 100%
